Assay results: US20240197733A1, “A GABA RECEPTOR MODULATOR FOR USE IN THE TREATMENT OF PAIN” (SANIONA A/S, priority 2021, published 2024)

What was measured:
[1] = system: electrocutaneous stimulation-induced facial pain rodent model; assay: ES-induced facial pain model, hot thermal hyperalgesia (lamp test, selective C fiber testing), acute treatment; format: in vivo, Sprague-Dawley rats
Source text: (§1) The electrocutaneous stimulation-induced facial pain rodent model is a reproducible orofacial pain model in which depilated cheek area of rats are repeatedly subjected to electrical stimulation. Repeated electrical stimulation at low intensities produces craniofacial pain that mimics the behavioral characteristics of TN such as development of mechanical and thermal allodynia at cheeks despite no visible edema, swelling or excessive injury and tissue damage.
(§2) Male wild type, Sprague-Dawley rats (Charles River Laboratories) born in-house at AfaSci Research Laboratory between May 24, 2020 to May 28, 2020. At approximately 3 months of age (approximately 350 g-450 g body weight) the rats were deemed suitable for the electrocutaneous stimulation-induced facial pain model. Prior to the experiment, the rats were maintained in group cages (3 rats per cage) in a controlled environment (temperature: 21.5±4.5° C./relative humidity: 35-55%) under a standard 12 h light/12 h dark lighting cycle (lights on at 06:00).
(§3) The required quantity of the compounds are weighed and dissolved in 100% DMSO in a volume amounting to 5% of the total volume while placed on a stirrer. The weight of the compounds refers to the free base weights. Once the solution becomes clear/transparent, the remaining volume of the vehicle is added (30% HPBCD prepared in MQ water) to final concentrations of 0.1, 0.3, and 1 mg/ml for Compound 1 and 3 mg/ml of Carbamazepine. The solutions are kept on a stirrer before- and during administration of the compounds to the animals.
(§4) The experimenter assessing the behavioral responses to drug administration is blinded to the drug treatment to the animals. Each treatment group is coded according the scheme below: • A. Vehicle (5% DMSO+30% HPBCD): 10 ml/kg • B. Compound 1: 1 mg/kg • C. Compound 1: 3 mg/kg • D. Compound 1: 10 mg/kg • F. Carbamazepine: 30 mg/kg
Second baseline measurement was carried out similarly to day 1. Immediately following the second baseline recording, each rat received 1 hr of electrocutaneous stimulation at cheek (0.4 mA intensity, 10 ms duration, 1 s inter-pulse interval). For each animal, the average of the two baseline nociceptive measurements were calculated within each pain modality (mechanical, heat- and cold pain), and used as baseline (“Baseline” point on figures).
Similarly, to day 1- and 2, all rats were subjected to acclimatization to test equipment and decapicone followed by measurements of ES-induced facial mechanical- heat- and cold allodynia (“0” time point on figures). Based on the individual rat's mechanical- and thermal hypersensitivity, 40 rats were selected for drug testing. Compound 1, vehicle and Carbamazepine was administered perorally in doses of 1, 3, and 10 mg/kg (Compound 1) or 30 mg/kg (carbamazepine) and drug effects on pain thresholds were evaluated 2- and 4 hours after drug administration by assessment of mechanical- (von Frey) and thermal hypersensitivity (heat- and cold stimulation respectively).
(§5) Decrease in ES-induced pain threshold was evaluated 22 hours following electrical stimulation of the depilated left cheek area (between the eye and ear ridge, this is a receptive field of trigeminal nerve) of each rat and was manifested as facial withdrawal following application of Von Frey filaments for mechanical allodynia and a heat lamp and acetone test for thermal hyperalgesia and allodynia respectively. Baseline pain behaviors were measured similarly to ES-induced facial pain measurements, except that rats were not subjected to ES stimulation.
Immediately following assessment of mechanical pain threshold, thermal (hot- and cold induced) pain was determined. […]

[2] = system: electrocutaneous stimulation-induced facial pain rodent model; assay: ES-induced facial pain model, mechanical allodynia (Von Frey filaments), acute treatment; format: in vivo, Sprague-Dawley rats; conditions: for effect on mechanical allodynia (mechanical pain threshold, Von Frey) vs vehicle: acute
Source text: as §1, §2, §3, §4
Second baseline measurement was carried out similarly to day 1. […] For each animal, the average of the two baseline nociceptive measurements were calculated within each pain modality (mechanical, heat- and cold pain), and used as baseline (“Baseline” point on figures).
Similarly, to day 1- and 2, all rats were subjected to acclimatization to test equipment and decapicone followed by measurements of ES-induced facial mechanical- heat- and cold allodynia (“0” time point on figures). […] Compound 1, vehicle and Carbamazepine was administered perorally in doses of 1, 3, and 10 mg/kg (Compound 1) or 30 mg/kg (carbamazepine) and drug effects on pain thresholds were evaluated 2- and 4 hours after drug administration by assessment of mechanical- (von Frey) and thermal hypersensitivity (heat- and cold stimulation respectively).
as §5
Mechanical pain thresholds were assessed by measuring each rat's facial withdrawal threshold (g) in response to von Frey monofilaments (BioSeb). […]

[3] = target: GABAA receptors containing the a2 subunit (Homo sapiens, UniProt P18507+P47869); conditions: cited from earlier work
Sequence of GABAA receptors containing the a2 subunit (P47869 29-451): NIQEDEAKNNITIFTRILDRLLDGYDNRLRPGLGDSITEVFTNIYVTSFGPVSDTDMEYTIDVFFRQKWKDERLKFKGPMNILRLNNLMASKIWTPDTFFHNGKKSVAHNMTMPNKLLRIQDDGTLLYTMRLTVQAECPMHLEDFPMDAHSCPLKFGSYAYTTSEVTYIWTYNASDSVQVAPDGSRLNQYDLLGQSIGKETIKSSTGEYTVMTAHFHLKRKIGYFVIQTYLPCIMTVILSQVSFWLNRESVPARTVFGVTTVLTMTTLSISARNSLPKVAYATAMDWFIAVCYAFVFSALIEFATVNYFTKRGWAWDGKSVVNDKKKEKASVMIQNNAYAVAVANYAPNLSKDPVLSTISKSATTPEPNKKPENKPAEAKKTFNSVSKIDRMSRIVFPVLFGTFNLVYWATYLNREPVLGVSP
Sequence of GABAA receptors containing the a2 subunit (P47870 25-512 partner limits assumed): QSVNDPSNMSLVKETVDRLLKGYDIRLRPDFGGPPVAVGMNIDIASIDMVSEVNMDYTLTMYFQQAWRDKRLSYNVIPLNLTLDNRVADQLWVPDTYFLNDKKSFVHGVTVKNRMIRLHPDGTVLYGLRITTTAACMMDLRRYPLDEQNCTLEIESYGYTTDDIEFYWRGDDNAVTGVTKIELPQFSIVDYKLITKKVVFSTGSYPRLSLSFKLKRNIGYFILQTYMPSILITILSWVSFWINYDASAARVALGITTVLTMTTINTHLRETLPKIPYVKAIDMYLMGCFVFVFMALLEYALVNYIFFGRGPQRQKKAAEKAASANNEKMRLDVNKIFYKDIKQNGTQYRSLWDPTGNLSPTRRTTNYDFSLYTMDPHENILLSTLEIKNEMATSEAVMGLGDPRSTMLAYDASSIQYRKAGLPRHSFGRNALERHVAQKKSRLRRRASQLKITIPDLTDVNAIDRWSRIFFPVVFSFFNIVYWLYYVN
Sequence of GABAA receptors containing the a2 subunit (P18507 40-475): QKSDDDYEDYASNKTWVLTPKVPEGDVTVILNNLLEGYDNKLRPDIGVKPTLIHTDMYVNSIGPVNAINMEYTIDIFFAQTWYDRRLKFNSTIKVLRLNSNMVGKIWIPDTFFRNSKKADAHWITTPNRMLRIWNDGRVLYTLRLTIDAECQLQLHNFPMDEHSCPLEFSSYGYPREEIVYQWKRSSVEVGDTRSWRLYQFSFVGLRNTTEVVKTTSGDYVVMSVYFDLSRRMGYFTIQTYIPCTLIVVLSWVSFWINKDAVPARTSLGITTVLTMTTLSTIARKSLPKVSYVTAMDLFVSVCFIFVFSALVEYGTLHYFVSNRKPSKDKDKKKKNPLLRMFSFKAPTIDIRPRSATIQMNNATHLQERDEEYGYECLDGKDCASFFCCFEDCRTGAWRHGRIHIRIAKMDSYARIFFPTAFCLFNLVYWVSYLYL

COc1ncc(-c2cccc(-n3cnc4cc(C(C)(C)O)cnc43)c2)c(OC)n1 [Compound 1, 2-(3-(3-(2,4-dimethoxypyrimidin-5-yl)phenyl)-3H-imidazo[4,5-b]pyridin-6-yl)propan-2-ol]
effect on heat thermal hyperalgesia (facial withdrawal latency) vs vehicle ([1]; 3 mg/kg po, post 2 and 4 hrs, p<0.05 and p<0.001 vs vehicle): significantly reversed the mechanical allodynia
effect on heat thermal hyperalgesia (facial withdrawal latency) vs vehicle ([1]; 10 mg/kg po, 2 and 4 hrs post dose, p<0.0001): significantly produced reversal of hyperalgesia
reversal of hyperalgesia in the thermal heat test (conclusion) ([1]; 10 mg/kg po, highest dose tested, similar to Carbamazepine 30 mg/kg): full reversal of hyperalgesia
effect on heat thermal hyperalgesia (facial withdrawal latency), dose dependence ([1]; 1, 3 and 10 mg/kg po): dose dependently reversed the heat thermal hyperalgesia
minimal effective dose, heat thermal hyperalgesia ([1]; po, p<0.01 and p<0.05 vs vehicle 2 and 4 hrs post dose): 1 mg/kg
effect on mechanical allodynia (mechanical pain threshold, Von Frey) vs vehicle ([2]; 3 mg/kg po, 4 hours post dosing, p<0.05 vs vehicle): significant analgesic effect
effect on mechanical allodynia (mechanical pain threshold, Von Frey) vs vehicle ([2]; 10 mg/kg po, 2 hrs, p<0.05 vs vehicle): reversed the mechanical allodynia
effect on mechanical allodynia (mechanical pain threshold, Von Frey) vs vehicle ([2]; 10 mg/kg po, 4 hours post dosing, p<0.0001 vs vehicle): significant analgesic effect
analgesic effect on mechanical allodynia compared with carbamazepine 30 mg/kg p.o. ([2]; 10 mg/kg po, post 4 hrs of treatment): comparable analgesic effect with carbamazepine
positive allosteric modulation of GABAA receptors containing the a2 subunit [3]: to a minor extent
